# Conditions: buffer; pH 7.4; 200.0 µM
row,Compound,solubility kinetic [µg/mL]
1,COCC(=O)N1CCCC(C(=O)c2ccc(C(F)(F)F)cc2)C1 (stereo unspecified),> 49.4
2,CC(CCN1CCN(c2ccccc2)CC1)c1ccccc1.Cl (stereo unspecified),29.7
3,Oc1ccc(CNc2ccccc2)c2cccnc12,3.5
4,COC(=O)c1cc(C(=O)OC)n(Cc2ccc(C)cc2)c1C,28.9
5,CCn1cnc2scc(-c3ccc(OC)cc3)c2c1=O,> 43
6,Nc1ccc(C(=O)Nc2cccc3ncccc23)cc1,37.3
7,O=C(CSc1cccc2cccnc12)Nc1ccccc1F,7.3
8,O=C(COC(=O)c1ccc(O)cc1)Nc1ccc(S(=O)(=O)N2CCOCC2)cc1,52.4
9,CCC(CC)C(=O)c1c[nH]c(C(=O)NCc2cccnc2)c1,42.2
10,CC(=O)Nc1ccc(OCc2cccc3ccccc23)cc1,< 0.6
11,CCNC(=O)CCc1nc(-c2ccc(C)cc2)no1,> 38.9
12,O=C(Nc1ccc(Cl)c(Cl)c1)Nc1ccccn1,< 0.2
13,CCNC(=S)N1CCN(Cc2ccc3c(c2)OCO3)CC1,> 46.1
14,O=C(O)CC(c1ccc(F)cc1F)N1Cc2ccccc2C1=O (stereo unspecified),> 47.6
15,S=C(NCC1COc2ccccc2O1)Nc1ccccc1 (stereo unspecified),6.5
16,CS(=O)(=O)N1CCC(C(=O)NCc2ccc(F)cc2)CC1,> 47.2
17,CC(C)c1ccc(CNc2ncccn2)cc1.O=C(O)C(=O)O,31.3
18,CC(=O)O.CN1CCCC(CN2c3ccccc3Sc3ccccc32)C1 (stereo unspecified),> 55.6
19,CCc1ccc(/C=C2\SC(N3CCOCC3)=NC2=O)cc1,24.9
20,COC(=O)C1=C(C)N(C)C(=O)NC1c1cccc2ccccc12 (stereo unspecified),30.2
21,On1c(-c2ccccc2)nc2ncccc21,> 31.7
22,COc1ccc(NC(=O)/C=C/c2ccc(OC)c(OC)c2)cn1,11.3

row,Compound,solubility kinetic [µg/mL]
1,Cc1cc(=O)oc2c(C(=O)c3ccccc3)c(OCC(N)=O)ccc12,5.6
2,COc1cc(NC(=O)c2ccccc2)c(OC)cc1NC(=O)Cc1ccc(F)cc1,< 0.4
3,CN(C)S(=O)(=O)c1ccc(NC(=S)NC(=O)C2CCC2)cc1,12.5
4,COc1cccc(C(=O)NCC2(c3ccccc3)CCCC2)c1OC,15.3
5,Cc1ccc(CNS(=O)(=O)c2ccc(C)s2)cc1,> 42.2
6,Cc1ccc(C)c(NC(=O)CC2Oc3ccccc3NC2=O)c1 (stereo unspecified),1.1
7,CCCn1c(N)c(N2CCCCC2)c(=O)n(CC(=O)Nc2ccc(C(C)=O)cc2)c1=O,14.8
8,CCC1CCCCN1C(=O)COc1ccc2c(c1)OCO2 (stereo unspecified),> 43.7
9,Cc1c(C(=O)O)c(=O)n(-c2ccccc2)n1-c1ccccc1,> 44.1
10,CC1CN(Cc2ccccc2)c2nc3c(c(=O)[nH]c(=O)n3C)n2C1 (stereo unspecified),> 48.8
11,Cc1cc(C)c(NC(=O)c2cccc(NC(=O)c3ccco3)c2)c(C)c1,44.3
12,CC1(C)CC(=O)C2=C(C1)NC(=O)NC2c1ccc(Cl)cc1 (stereo unspecified),6.9
13,NC(=O)COC(=O)c1ccc2c(c1)C(=O)N(Cc1ccco1)C2=O,> 49.2
14,CCOC(=O)c1cn2nc(Oc3ccccc3)ccc2n1,> 42.5
15,COc1cc([N+](=O)[O-])ccc1NC(=O)NCc1ccccn1,> 45.3
16,Cc1ccc(CN2C(=O)CSC2c2ccc(F)cc2)cc1 (stereo unspecified),16.8
17,COc1nc(C)cc(C)c1S(=O)(=O)c1ccc(Cl)cc1,1.7
18,COc1ccc(/C(C)=N/N2CCOCC2)c(O)c1,> 37.5
19,O=C(CNS(=O)(=O)c1ccc(F)cc1)N1CCCC1,> 42.9
20,Cc1ccc2c(c1)N(Cc1ccc([N+](=O)[O-])cc1)C=NS2(=O)=O,34.9
21,Cc1cc(C)c2c(N)c(C(=O)c3ccccc3)sc2n1,< 0.3
22,Clc1ccccc1Nc1nc2ccccc2o1,2.3

row,Compound,solubility kinetic [µg/mL]
1,COc1ccc(Cl)cc1C(=O)Nc1cccc2ncccc12,2.2
2,CCOC(=O)N1CCN(S(=O)(=O)c2ccc(C)cc2)C1,38
3,CCC1CN(C(=O)NCc2cccc(OC)c2)c2cc(Cl)ccc2O1 (stereo unspecified),4.5
4,Clc1ccc(Cn2ccc3ccccc32)cn1,26.4
5,CCC(Sc1nc2ncnc(N)c2[nH]1)C(=O)O (stereo unspecified),34.1
6,COC(=O)c1cc(CNC(=O)CC(C)c2ccccc2)ccc1OC (stereo unspecified),> 51.2
7,COc1ccc(NC(=O)CC(C)CC(=O)NCc2ccccc2)c(OC)c1 (stereo unspecified),5
8,Cc1c(C(=O)N2c3ccccc3CC2C)oc2ccccc12 (stereo unspecified),0.7
9,O=C(NCC1CCCO1)C1CC(=O)N(c2cccc(Cl)c2)C1 (stereo unspecified),46.6
10,COc1ccc(Cl)cc1NC(=S)NCCO,> 39.1
11,Cc1ccc(N2CC(C(=O)Nc3cc(C)on3)CC2=O)c(C)c1 (stereo unspecified),> 47
12,NC(=Nc1ccc(Br)cc1)c1ccccc1,> 41.3
13,O=C(O)c1ccccc1NC(=O)c1ccccc1-c1ccccc1C(=O)O,> 54.2
14,CCOc1ccc(C2NC(=O)CCC2[N+](=O)[O-])cc1 (stereo unspecified),> 39.6
15,C#Cc1ccc(CN2CCN(CCCc3ccccc3)C(CCO)C2)cc1 (stereo unspecified),36.9
16,CSc1ccc(CN2CCN(C(=O)Cc3ccccc3)CC2)cc1,28.9
17,Br.Cc1ccc(C2=CSC3=NCCN23)cc1,43.2
18,OCCC1CN(Cc2nc3ccccc3[nH]2)CCN1C1CCCC1 (stereo unspecified),> 49.3
19,Cc1ccc(-c2csc(NC(=O)c3ccc([N+](=O)[O-])o3)n2)cc1,1.2
20,CCCn1c(SCC(=O)N(C)C2CCS(=O)(=O)C2)nc2sc3c(c2c1=O)CCC3 (stereo unspecified),> 68.3
21,O=C(COC(=O)CNC(=O)c1ccccc1Cl)NC1CC1,37.4
22,CCOP(=O)(OCC)/C(=N/OC(=O)c1ccc(OC)cc1)C(N)=O,> 53.7

row,Compound,solubility kinetic [µg/mL]
1,O=C(NC(=S)Nc1cccc2cnccc12)c1ccccc1,1.2
2,Cc1ccc(C(=O)NCC(c2ccco2)N2CCOCC2)cc1 (stereo unspecified),> 47.2
3,Cc1cc(C)c(C)c(S(=O)(=O)NCC(=O)Nc2ccc(F)cc2)c1C,3.9
4,CC(C)(CCO)NC(=S)NC1CC2C=CC1C2 (stereo unspecified),> 38.2
5,CCOc1ncccc1C(=O)Nc1ccc2c(c1)OCCCO2,> 47.2
6,COc1ccccc1C1CCN(C(=O)c2cccc([N+](=O)[O-])c2)CC1,39.5
7,O=C(NCCCN1CCOCC1)c1ccc(Cl)cc1[N+](=O)[O-],49.1
8,CCOC(=O)/C(N=Nc1ccc(C(=O)O)cc1[N+](=O)[O-])=C(\C)O,> 48.5
9,O=C(NCc1ccncc1)c1cc(C(=O)C2CC2)c[nH]1,36.2
10,COc1ccc(NC(=O)c2cc(C)no2)cc1Cl,7.5
11,Nc1ccc2c(c1)C(=O)c1ccccc1-2,27.9
12,CCNC(=O)CC1C(=O)N(c2ccc(OC)cc2)C(=O)N1CCOC (stereo unspecified),> 52.4
13,O=C(COC(=O)C1CC1)NCc1ccc(Cl)cc1Cl,41.9
14,O=C(COC(=O)c1ccc2c(c1)OCCO2)NCc1ccccc1Cl,5.2
15,O=C(CCCNC(=O)c1ccc(Cl)cc1)Nc1ncccc1O,> 50.1
16,O=C(NCCN1CCCCC1)Nc1cccc(C(F)(F)F)c1,> 47.3
17,C[n+]1cccc2cccc([O-])c21.O,25.2
18,NC(=O)CC(c1ccccc1)c1ccc2c(c1)OCO2 (stereo unspecified),39.9
19,CC1(CO)COC(c2ccccc2)=N1 (stereo unspecified),> 28.7
20,O=C(COc1ccc(F)c(Cl)c1)Nc1ccc(N2CCOCC2)cc1,5.4

# From PubChem BioAssay AID1996
